Our source for the EC50, Max. lysis and Kd values is article PMC6433934, “Preclinical Evaluation of Bispecific Adaptor Molecule Controlled Folate Receptor CAR-T Cell Therapy With Special Focus on Pediatric Malignancies” (Frontiers in Oncology, 2019).

The subject of one experiment is OV90. Put plainly: EC17 dose response, co-culture with E2-CAR-T cells, LDH specific lysis. It is filed as cell-based. As to conditions: OV90, E/T 1:1, 24 h co-culture. From the text:
To investigate EC17 CAM action in vitro, pure EGFRt-sorted CD4 and CD8 CAR-T cells were admixed in a 1:1 ratio and matching mock-transduced T cells were included per experimental design. Other than FR+/- isogenic pairs of AML and osteosarcoma cell lines, we added KB, MDA-MB-231 and OV90 to represent different histological tumor types and FR expression levels. All FR+ target cell lines were subjected to a direct ^3H-FA binding assay to quantitate the number of FR molecules bound/cell ([38]). Prior to co-culture experiments, cryopreserved CAR-T cells were allowed to recover for 2–3 days in T cell culture medium. All effector and target cells were pre-washed with FFRPMI to remove any exogenous FA that could compete against EC17. […]
For an EC17 dose response study, FR+ cancer cell lines (KB, MDA-MB-231, HOS-FRα, THP1-FRβ, OV90) were co-cultured with EGFRt-sorted E2-CAR-T cells at an effector-to-target (E/T) ratio of 1:1 in the presence of EC17 ranging from 0.1 pM to 100 μM in 10-fold increments. After 24 h of co-culture, supernatants were harvested to determine target cell killing by Promega's CytoTox 96® LDH assay kit and expressed as specific lysis (%) normalized to basal levels in the absence of EC17. […] The kinetics of target cell killing (i.e., % specific lysis) were quantified after 16 and 48 h of co-culture and normalized to basal levels in the absence of EC17 at defined E/T ratios. […]

A further experiment addresses T1, FRα (Homo sapiens, UniProt P15328).
T1 construct: KB (FRα-expressing human cervical carcinoma with HeLa markers); endogenous in cells; host or cells: KB cells (human cervical carcinoma with HeLa markers)
Put plainly: 3H-EC17 cell-based radioligand binding, KB cells. The settings on record: ^3H-EC17, KB cells, 2 h at 37°C, from molecules bound per cell. The protocol:
Unless otherwise noted, all FR+ and FR-negative cancer cell lines were, respectively, maintained in RPMI-1640 medium (Gibco BRL) supplemented with 10% heat-inactivated fetal calf serum without (FFRPMI) or with (RPMI) 2.4 μM folic acid (FA). KB (FRα-expressing human cervical carcinoma with HeLa markers) and CHO-β (Chinese hamster ovary cells transfected with human FRβ) were used as the sources of FRα and FRβ for radioligand binding assays, respectively ([18]). MDA-MB-231 represents a FRα+ subclone of human TNBC cell line. For AML studies, the green fluorescent protein (GFP)-expressing isogenic pairs of FRβ-positive (THP1-FRβ) and FR-negative (THP1-FG12) cell lines were kindly provided by Dr. Manohar Ratnam (The University of Toledo, Toledo, OH). […]
The bispecific affinities of EC17 CAM were assessed using ^3H-EC17 in cell-based radioligand binding assays. […] The whole cell lysates were quantitated for the level of radioactivity and cellular protein content by standard Pierce BCA protein assay. The number of ^3H-EC17 molecules bound per cell was calculated to determine the dissociation constants (Kd) for FRα (KB) and FRβ (CHO-β), respectively. […] Afterwards, the cells were washed 4x with PBS, lysed with 0.1% Triton X-100 plus 0.1 N NaOH and counted in a scintillation counter. […]

T1 sequence (P15328 25-257): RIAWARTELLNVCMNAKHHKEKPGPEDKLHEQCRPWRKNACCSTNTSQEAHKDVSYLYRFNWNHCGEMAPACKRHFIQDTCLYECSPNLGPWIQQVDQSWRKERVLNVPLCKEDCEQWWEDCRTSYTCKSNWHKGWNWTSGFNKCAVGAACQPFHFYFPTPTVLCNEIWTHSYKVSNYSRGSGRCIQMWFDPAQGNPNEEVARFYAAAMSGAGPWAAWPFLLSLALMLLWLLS

One may read the EC50 as the concentration needed to bring the measured effect to its halfway point. Low readings indicate higher potency in that assay, high ones lower potency in that assay. By Kd is commonly meant the concentration at which binding is half-saturated. The compound `Nc1nc2ncc(CNc3ccc(C(=O)NC(CCC(=O)NCCNC(=S)Nc4ccc(-c5c6ccc(=O)cc-6oc6cc(O)ccc56)c(C(=O)O)c4)C(=O)O)cc3)nc2c(=O)[nH]1` (stereo not drawn) [EC17, FA-(γ)-ethylenediamine-FITC] showed an EC50 in the experiment on OV90 (Homo sapiens, OV-90, curve fitted up to 100 nM) of 0.418 nM. In the experiment on OV90, the Max. lysis is recorded as 15%. At FRα, binding was characterised by a dissociation constant (Kd) of 1.7 nM.
